Experimental findings from ChEMBL document CHEMBL4145535, “Recent updates for designing CCR5 antagonists as anti-retroviral agents” (Eur J Med Chem, 2018) are described below.

Experiment [1] deals with T1, C-C chemokine receptor type 5 (Homo sapiens, UniProt P51681). In words: Antagonist activity at CCR5 (unknown origin) by HTS assay. In kind it is functional.
Target sequence in this assay (P51681 whole entry): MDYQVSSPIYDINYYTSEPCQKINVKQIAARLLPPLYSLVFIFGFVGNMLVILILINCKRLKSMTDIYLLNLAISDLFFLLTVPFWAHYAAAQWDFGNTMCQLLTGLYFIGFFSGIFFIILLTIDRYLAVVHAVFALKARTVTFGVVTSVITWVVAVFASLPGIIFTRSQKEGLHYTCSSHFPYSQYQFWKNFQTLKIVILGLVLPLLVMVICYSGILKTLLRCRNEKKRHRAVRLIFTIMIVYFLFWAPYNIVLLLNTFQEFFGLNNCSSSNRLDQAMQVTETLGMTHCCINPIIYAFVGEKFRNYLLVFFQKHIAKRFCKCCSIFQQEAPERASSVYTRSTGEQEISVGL
Experiment [2] concerns the target T1, C-C chemokine receptor type 5. In words: Displacement of [125I]-RANTES from CCR5 in mouse NIH/3T3 cells after 1 hr. (In general: In a radioligand displacement assay an active substance lowers the binding of a labelled ligand.)
Target sequence in this assay (P51681 whole entry, looked up): as the sequence (P51681 whole entry) above

As to `C1NCC2CNCC12` (configuration not stated), the half-inhibitory concentration (IC50) (usually the concentration needed to halve the response being measured) in experiment [1] was found to be 7 nM. `C=CCN(C(=O)OCc1ccc([N+](=O)[O-])cc1)C1CCN(C[C@H]2CN(C(=O)C3CCCC3)C[C@]2(O)c2ccccc2)CC1` [NIFEVIROC] gave an IC50 in experiment [2] of 2.9 nM.
